Counter-ions that a name gives are not always drawn.
Tested on: mongolian gerbils
Assay: gerbil social interaction model (time spent in active social interactions)
Format: in vivo
Details: one hour after administration
Procedure: Paroxetine hydrochloride hemihydrate (0.3 mg/kg p.o of the paroxetine measured as the free base.), 2-(S)-(4-Fluoro-2-methyl-phenyl)-piperazine-1-carboxylic acid [1-(R)-(3,5-bis-trifluoromethyl-phenyl)-ethyl]-methyl-amide methansulphonate (hereinafter compound A) (0.1 mg/kg i.p of the compound A measured as the free base) and a combination of paroxetine (0.3 mg/kg p.o. of the paroxetine measured as the free base) and compound A (0.1 mg/kg i.p. of the compound A measured as the free base) were administered independently in mongolian gerbils to assess the effect on time spent in active social interactions.
The results obtained one hour after administration, expressed as a percentage variation of the time spent in active social interactions by each animal in respect to the value obtained by treatment of control animals, are summarised in table 1.

CS(=O)(=O)O.Cc1cc(F)ccc1[C@H]1CNCCN1C(=O)N(C)[C@H](C)c1cc(C(F)(F)F)cc(C(F)(F)F)c1 [Compound A, 2-(S)-(4-Fluoro-2-methyl-phenyl)-piperazine-1-carboxylic acid [1-(R)-(3,5-bis-trifluoromethyl-phenyl)-ethyl]-methyl-amide methansulphonate]
% variation of the time spent in active social interactions in respect to control animals (0.1 mg/kg i.p. (measured as the free base)): −8%

Fc1ccc([C@@H]2CCNC[C@H]2COc2ccc3c(c2)OCO3)cc1 [Paroxetine hydrochloride hemihydrate, (−) trans-4-(4′-fluorophenyl)3-(3′-4′-methylenedioxyphenoxymethyl)piperidine]
% variation of the time spent in active social interactions in respect to control animals (0.3 mg/kg p.o. (measured as the free base)): −2%
